Data on nine compounds can be found in DBAASP.

Some test systems named below: Escherichia coli K91BK; Salmonella sp.; Yersinia enterocolitica; Escherichia coli; Escherichia coli O111; Escherichia coli D31; Staphylococcus aureus MR.
What all share (assay): ≥ marks a high value that may be exact or a test limit, other limits are often not marked, values filed in µg/mL are converted to µM
Test [1] has as its system Bacillus anthracis Sterne 34F2.
In test [2] the test system is Bacillus subtilis var. niger ATCC 9372.
Test [3] deals with Escherichia coli ATCC 25922.
The subject of test [4] is Staphylococcus aureus ATCC 43300.
Test [5] has as its system Staphylococcus aureus ATCC 29213.
The test system of test [6] is Salmonella enterica subsp. enterica serovar Enteritidis.
The test system of test [7] is Staphylococcus aureus FDA 209P.
Test [8] relates to Bacillus subtilis ATCC 6633.
Test [9] relates to Klebsiella pneumoniae ATCC 700603.
Test [10] concerns Pseudomonas aeruginosa ATCC 27853.
Test [11] deals with Candida albicans ATCC 90028.
Test [12] relates to Cryptococcus neoformans ATCC 208821.
Test [13] relates to Acinetobacter baumannii ATCC 19606.
Test [14] deals with Staphylococcus aureus SH1000.
Test [15] deals with Candida albicans ATCC 10231.
Test [16] relates to Streptococcus mutans ATCC 25175.
Test [17] concerns Staphylococcus aureus ATCC 25923.
Test [18] relates to Pseudomonas aeruginosa ATCC 15442.
The test system of test [19] is Pseudomonas aeruginosa PAO1.
The subject of test [20] is Staphylococcus aureus ATCC 12600.

Each structure is given as a SMILES string. In brackets after ≈: the same amount, converted by molar mass. Bounds are passed on as bounds.

Regarding `CC[C@H](C)[C@H](NC(=O)[C@H](CC(N)=O)NC(=O)[C@H](CCCCN)NC(C)=O)C(=O)N[C@@H](CCCN=C(N)N)C(=O)N[C@@H](CCCN=C(N)N)C(=O)N[C@H](C(=O)N[C@H](C(=O)N[C@@H](CCCN=C(N)N)C(=O)N[C@@H](CCCCN)C(=O)N[C@H](C(=O)N[C@H](C(=O)N[C@@H](Cc1cnc[nH]1)C(=O)N[C@H](C(=O)N[C@H](C(=O)N[C@@H](CCCCN)C(=O)N[C@@H](CCCCN)C(=O)N[C@@H](Cc1ccc(O)cc1)C(=O)NCC(N)=O)[C@@H](C)CC)[C@@H](C)CC)[C@@H](C)CC)[C@@H](C)CC)[C@@H](C)CC)[C@@H](C)CC` [KNIRRIIRKIIHIIKKYG], the MIC is at least 100 µM in the test on Escherichia coli K91BK, 6.25 µM (≈ 14.4 µg/mL) in [1] and 0.93 µM (≈ 2.14 µg/mL) in [2].
In the case of `CC[C@H](C)[C@H](NC(=O)[C@H](CCCCN)NC(=O)[C@@H]1CCCN1C(=O)[C@H](CCC(N)=O)NC(=O)[C@@H](N)CCCN=C(N)N)C(=O)N1CCC[C@H]1C(=O)N[C@@H](CCCN=C(N)N)C(=O)N[C@@H](CCSC)C(=O)N1CCC[C@H]1C(=O)N[C@@H](Cc1c[nH]c2ccccc12)C(=O)N[C@@H](CCCN=C(N)N)C(N)=O` [RQPKIPRMPWR], the minimum inhibitory concentration (MIC) against Salmonella sp. is at least 34.1 µM; in the test on Yersinia enterocolitica, at least 34.1 µM; in [3], above 34.1 µM; in test [4] it was above 34.1 µM; in test [5] it was above 34.1 µM; in test [6], at least 34.1 µM. The compound also gave an MIC in the test on Escherichia coli above 34.1 µM.
With `CC[C@H](C)[C@H](NC(=O)CNC(=O)[C@H](CCC(=O)O)NC(=O)[C@H](Cc1c[nH]c2ccccc12)NC(=O)[C@@H](NC(=O)[C@@H](N)CO)[C@@H](C)CC)C(=O)N[C@@H](CCCCN)C(=O)N[C@@H](CC(N)=O)C(=O)N[C@@H](C)C(=O)NCC(=O)N[C@@H](CCCCN)C(=O)NCC(=O)N[C@@H](Cc1ccccc1)C(=O)N[C@@H](CC(C)C)C(=O)N[C@H](C(=O)N[C@@H](CO)C(=O)N[C@H](C(=O)N[C@@H](CC(C)C)C(=O)N[C@@H](CC(=O)O)C(=O)N[C@@H](CCCCN)C(=O)N[C@H](C(=O)N[C@@H](CCCN=C(N)N)C(=O)N[C@H]1CSSC[C@@H](C(=O)N[C@@H](CC(N)=O)C(=O)N2CCC[C@H]2C(=O)O)NC(=O)CNC(=O)CNC(=O)[C@H](C)NC(=O)[C@H](C(C)C)NC(=O)[C@H](CCCCN)NC1=O)C(C)C)[C@@H](C)CC)C(C)C` [SIWEGIKNAGKGFLVSILDKVRCKVAGGCNP], the MIC against Escherichia coli O111 was determined as 6.01 µM (≈ 19.6 µg/mL); in test [3], 3.01 µM (≈ 9.79 µg/mL); in [7] it was 3.01 µM (≈ 9.79 µg/mL); in [8] it was 19.6 µM (≈ 64 µg/mL).
As to `CC[C@H](C)[C@H](NC(=O)[C@H](CC(=O)O)NC(=O)[C@H](Cc1ccccc1)NC(=O)[C@H](CC(C)C)NC(=O)CN)C(=O)N[C@H](C(=O)N[C@@H](CCCCN)C(=O)N[C@@H](CCCCN)C(=O)N[C@H](C(=O)N[C@@H](CC(C)C)C(=O)N[C@@H](CCCCN)C(=O)N[C@@H](CC(C)C)C(=O)N[C@@H](CC(C)C)C(=O)N[C@@H](CCCCN)C(N)=O)C(C)C)C(C)C` [GLFDIVKKVLKLLK], the MIC in test [9] is above 20 µM; in test [10] it was above 20 µM; in [11], 20 µM (≈ 32.3 µg/mL); in [3], above 20 µM; in test [4] it was above 20 µM; in test [12] it was 20 µM (≈ 32.3 µg/mL). The minimal inhibitory concentration (MIC) in [13] is above 20 µM; in test [14], 3.3 µM (≈ 5.32 µg/mL).
Consider `CC[C@H](C)[C@H](NC(=O)[C@H](CCCCN)NC(=O)[C@H](CCC(N)=O)NC(=O)[C@H](CC(C)C)NC(=O)[C@@H](N)Cc1ccccc1)C(=O)N[C@H](C(=O)NCC(=O)N[C@@H](C)C(=O)N[C@@H](CC(C)C)C(=O)NCC(=O)N[C@@H](Cc1cnc[nH]1)C(=O)N[C@@H](CC(C)C)C(=O)N[C@@H](Cc1ccccc1)C(N)=O)[C@@H](C)CC` [FLQKIIGALGHLF], for which the MIC in the test with Escherichia coli D31 was at least 100 µM; in [15], above 100 µM; in test [3], 12.5 µM (≈ 18.2 µg/mL); in [4], 6.2 µM (≈ 9.03 µg/mL); in test [16], 6.2 µM (≈ 9.03 µg/mL); in test [8] it was at least 100 µM. The MIC in test [17] was 3.1 µM (≈ 4.51 µg/mL); in test [18] it was 6.2 µM (≈ 9.03 µg/mL); with Staphylococcus aureus MR, 12.5 µM (≈ 18.2 µg/mL); in [19], above 100 µM.
Turning to `CC[C@H](C)[C@H](NC(=O)[C@H](CC(=O)O)NC(=O)[C@H](Cc1ccccc1)NC(=O)[C@H](CC(C)C)NC(=O)CN)C(=O)N[C@H](C(=O)N[C@@H](CCCCN)C(=O)N[C@@H](CCCCN)C(=O)N[C@H](C(=O)N[C@H](C(=O)NCC(=O)N[C@@H](C)C(=O)N[C@@H](CC(C)C)C(=O)N[C@@H](CCCCN)C(N)=O)C(C)C)C(C)C)C(C)C` [GLFDIVKKVVGALK], the MIC was above 22 µM in [9]; above 22 µM in test [10]; 22 µM (≈ 32.7 µg/mL) in [11]; above 22 µM in test [3]; above 22 µM in [4]; 22 µM (≈ 32.7 µg/mL) in test [12]. Besides, the MIC in [13] is above 22 µM; in test [14], at least 33 µM.
For `CC[C@H](C)[C@H](NC(=O)[C@H](CCC(N)=O)NC(=O)[C@@H](N)CCCN=C(N)N)C(=O)N[C@H](C(=O)N[C@@H](CCCN=C(N)N)C(=O)N[C@@H](CCCN=C(N)N)C(=O)N[C@@H](CCSC)C(=O)N[C@@H](CCC(N)=O)C(=O)N[C@@H](CCCN=C(N)N)C(N)=O)[C@@H](C)CC` [RQIIRRMQR], the MIC is at least 39.8 µM with Salmonella sp.; at least 39.8 µM against Yersinia enterocolitica; above 39.8 µM in [3]; above 39.8 µM in [4]; above 39.8 µM in [5]; at least 39.8 µM in test [6]. Besides, the MIC against Escherichia coli is above 39.8 µM.
For the compound `CC[C@H](C)[C@H](NC(=O)[C@H](C)NC(=O)CNC(=O)[C@H](Cc1ccccc1)NC(=O)[C@H](CC(C)C)NC(=O)CN)C(=O)N[C@@H](C)C(=O)NCC(=O)N[C@@H](Cc1ccccc1)C(=O)N[C@H](C(=O)N[C@@H](CCCCN)C(=O)N[C@@H](CC(N)=O)C(=O)NCC(=O)N[C@@H](Cc1c[nH]c2ccccc12)C(=O)N[C@@H](CCCCN)C(=O)NCC(=O)N[C@@H](CCSC)C(=O)N[C@H](C(=O)N[C@@H](CCCCN)C(=O)NCC(N)=O)[C@@H](C)CC)[C@@H](C)CC` [GLFGAIAGFIKNGWKGMIKG], the MIC in test [10] worked out at 7.6 µM (≈ 15.7 µg/mL); in test [20], 3.8 µM (≈ 7.85 µg/mL); in test [3], 3.8 µM (≈ 7.85 µg/mL); in test [16], 1.9 µM (≈ 3.92 µg/mL).
Turning to `CC[C@H](C)[C@H](NC(=O)CN)C(=O)N[C@@H](Cc1ccccc1)C(=O)N[C@H](C(=O)N[C@@H](CC(C)C)C(=O)N[C@@H](Cc1ccccc1)C(=O)N[C@@H](CCCCN)C(=O)NCC(=O)N[C@@H](C)C(=O)N[C@@H](C)C(=O)N[C@@H](CCCCN)C(=O)N[C@@H](CC(C)C)C(=O)N[C@@H](CC(C)C)C(=O)NCC(=O)N[C@@H](CCCCN)C(=O)N[C@H](C(=O)N[C@@H](CC(C)C)C(=O)N[C@@H](C)C(=O)N[C@@H](CCCCN)C(=O)N[C@@H](CCC(=O)O)C(=O)N[C@@H](C)C(=O)NCC(=O)N[C@@H](CCCCN)C(=O)N[C@H](C(=O)NCC(=O)N[C@@H](CC(C)C)C(=O)N[C@@H](CCC(=O)O)C(=O)N[C@@H](CC(C)C)C(=O)N[C@@H](CCSC)C(=O)N[C@@H](C)C(=O)N[C@H]1CSSC[C@@H](C(=O)O)NC(=O)[C@H](CCC(N)=O)NC(=O)[C@H](CC(N)=O)NC(=O)[C@H]([C@@H](C)O)NC(=O)[C@H](C(C)C)NC(=O)[C@H](CCCCN)NC1=O)[C@@H](C)O)[C@@H](C)O)[C@@H](C)O` [GIFTLFKGAAKLLGKTLAKEAGKTGLELMACKVTNQC], the MIC stood at 2.8 µM (≈ 10.8 µg/mL) in [3] and 4.4 µM (≈ 17 µg/mL) in [7].
